pIC50: −log10 of the molar value. Like-named read-outs stand apart in the source and are kept apart here.
What was measured:
[1] = test system: OCI-Ly10 human DLBCL cells; assay: OCI-Ly10 anti-proliferative activity (Resazurin); type: cell-based; details: Homo sapiens, OCI-Ly10, 72 h, read-out: Proliferation Assay OCI-Ly10-20% FBS
In short: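 A separate untreated plate gave the Day 0 reading, measured by Resazurin fluorescence at 590 nm after 5 h. The average Day 0 value was subtracted from each treated well, and results were expressed as percent of DMSO control. IC50 values came from a log[Inhibitor] vs response Variable Slope fit in Graphpad prism.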

Recombinant EGFR = molecular target: T1, Recombinant EGFR (Homo sapiens, UniProt P00533); assay: EGFR binding affinity (LanthaScreen TR-FRET); details: Kinase Tracer 199, 5 h incubation
T1 construct: purchased Invitrogen
T1 sequence (P00533 25-1210): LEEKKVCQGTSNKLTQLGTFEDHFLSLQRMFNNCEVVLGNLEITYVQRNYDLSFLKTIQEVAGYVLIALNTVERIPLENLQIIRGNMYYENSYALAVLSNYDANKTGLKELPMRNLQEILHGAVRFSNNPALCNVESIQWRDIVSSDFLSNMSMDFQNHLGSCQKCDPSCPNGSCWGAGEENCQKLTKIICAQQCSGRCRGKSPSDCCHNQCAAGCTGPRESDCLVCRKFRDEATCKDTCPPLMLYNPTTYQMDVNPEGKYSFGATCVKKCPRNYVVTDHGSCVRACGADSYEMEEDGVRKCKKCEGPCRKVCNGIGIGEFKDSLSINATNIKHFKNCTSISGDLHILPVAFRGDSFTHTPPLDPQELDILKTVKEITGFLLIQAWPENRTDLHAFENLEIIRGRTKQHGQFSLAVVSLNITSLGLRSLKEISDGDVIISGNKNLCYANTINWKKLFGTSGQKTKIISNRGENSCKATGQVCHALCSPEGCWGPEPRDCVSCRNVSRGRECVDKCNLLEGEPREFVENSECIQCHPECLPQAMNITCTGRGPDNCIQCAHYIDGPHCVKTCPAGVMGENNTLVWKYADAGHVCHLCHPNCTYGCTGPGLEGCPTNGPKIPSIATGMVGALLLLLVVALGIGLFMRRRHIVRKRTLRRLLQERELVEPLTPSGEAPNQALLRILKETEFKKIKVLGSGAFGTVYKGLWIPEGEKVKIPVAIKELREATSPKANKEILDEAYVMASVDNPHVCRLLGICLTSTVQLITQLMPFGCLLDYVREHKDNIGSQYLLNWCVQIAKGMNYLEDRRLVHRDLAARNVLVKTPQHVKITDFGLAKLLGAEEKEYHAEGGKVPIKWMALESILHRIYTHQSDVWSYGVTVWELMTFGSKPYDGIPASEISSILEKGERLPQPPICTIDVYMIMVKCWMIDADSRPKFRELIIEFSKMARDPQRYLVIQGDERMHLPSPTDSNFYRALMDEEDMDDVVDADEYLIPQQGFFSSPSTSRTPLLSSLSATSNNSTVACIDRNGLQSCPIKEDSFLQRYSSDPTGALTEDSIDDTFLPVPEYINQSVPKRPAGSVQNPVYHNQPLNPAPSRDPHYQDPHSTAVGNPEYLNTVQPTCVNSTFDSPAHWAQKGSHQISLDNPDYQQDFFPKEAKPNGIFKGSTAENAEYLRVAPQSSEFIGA
In short: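 Compounds were titrated against recombinant EGFR and binding was followed by LanthaScreen time-resolved FRET.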

[2] = molecular target: T2, Recombinant BTK^WT kinase (Homo sapiens, UniProt Q06187); assay: BTK WT binding affinity (LanthaScreen TR-FRET); details: Kinase Tracer 236, 5 h incubation
T2 construct: purchased Invitrogen
T2 sequence (Q06187 whole entry): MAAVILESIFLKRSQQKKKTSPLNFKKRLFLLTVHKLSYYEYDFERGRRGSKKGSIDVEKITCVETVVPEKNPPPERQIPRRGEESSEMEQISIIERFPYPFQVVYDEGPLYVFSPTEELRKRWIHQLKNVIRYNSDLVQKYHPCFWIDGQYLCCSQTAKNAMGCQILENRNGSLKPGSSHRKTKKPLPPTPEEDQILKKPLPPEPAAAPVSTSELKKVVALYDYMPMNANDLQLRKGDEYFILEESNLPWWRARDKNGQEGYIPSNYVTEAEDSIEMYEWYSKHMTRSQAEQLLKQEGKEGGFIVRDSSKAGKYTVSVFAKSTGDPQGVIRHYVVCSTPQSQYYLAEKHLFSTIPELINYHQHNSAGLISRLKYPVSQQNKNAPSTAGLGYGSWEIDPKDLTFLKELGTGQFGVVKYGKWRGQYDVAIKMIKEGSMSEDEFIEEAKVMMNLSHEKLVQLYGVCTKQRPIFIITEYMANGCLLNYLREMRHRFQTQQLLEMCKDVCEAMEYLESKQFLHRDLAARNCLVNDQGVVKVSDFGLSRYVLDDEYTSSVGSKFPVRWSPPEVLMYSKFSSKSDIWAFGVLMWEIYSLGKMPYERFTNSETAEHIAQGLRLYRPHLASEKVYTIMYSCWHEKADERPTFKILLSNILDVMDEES
In short: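 IC50 obtained by variable-slope fit of TR-FRET signal (ex 340 nm; em 615 and 665 nm) versus inhibitor concentration. Reaction held for 5 h in LanthaScreen Kinase Buffer A with 2.5 nM His-tagged BTK^WT, 15 nM Kinase Tracer 236 and 2 nM Eu anti-His antibody.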

[3] = molecular target: T3, Recombinant BTK^C481S kinase (Homo sapiens, UniProt Q06187, C481S); assay: BTK C481S binding affinity (LanthaScreen TR-FRET); details: Kinase Tracer 236, 5 h incubation
T3 construct: purchased SignalChem
T3 sequence (Q06187 whole entry C481S): as the sequence (Q06187 whole entry) above, with C481S counted along it
In short: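 BTK C481S tracer-displacement TR-FRET: 5 nM His-tagged kinase, 2 nM Eu anti-His antibody and 30 nM Kinase Tracer 236 incubated with titrated inhibitor for 5 h in Kinase Buffer A. Read at 340 nm excitation, 615/665 nm emission; IC50 from variable-slope log[inhibitor]–response fit.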

[4] = OCI-Ly10 cells, 72 h compound treatment, Resazurin

Row | SMILES | pIC50 [1, 4] | pIC50 (Recombinant EGFR) | pIC50 [2] | pIC50 [3] | pIC50 [1]
1 | COc1ccc(F)cc1C(=O)NCc1ccc(-c2nn([C@@H]3CCOC3)c(N)c2C(N)=O)cc1 [Example 164, 5-amino-3-[4-[[(5-fluoro-2-methoxy-benzoyl)amino]methyl]phenyl]-1-[(3R)-tetrahydrofuran-3-yl]pyrazole-4-carboxamide] | 7.00 to 8.00 | 5.00 to 6.00 | > 8.00 | > 8.00 | –
2 | COc1ccc(F)cc1C(=O)NCc1ccc(-c2nn(C(C)C(F)(F)F)c(N)c2C(N)=O)c(F)c1F (stereo not shown) [Example 165, 5-amino-3-[2,3-difluoro-4-[[(5-fluoro-2-methoxy-benzoyl)amino]methyl]phenyl]-1-(2,2,2-trifluoro-1-methyl-ethyl)pyrazole-4-carboxamide] | 7.00 to 8.00 | 5.00 to 6.00 | 7.00 to 8.00 | > 8.00 | –
3 | COc1ccccc1C(=O)NCc1ccc(-c2nn(C3CN(C)CC3(F)F)c(N)c2C(N)=O)cc1F (stereo not shown) [Example 166, 5-amino-1-(4,4-difluoro-1-methyl-pyrrolidin-3-yl)-3-[3-fluoro-4-[[(2-methoxybenzoyl)amino]methyl]phenyl]pyrazole-4-carboxamide] | 7.00 to 8.00 | 5.00 to 6.00 | 7.00 to 8.00 | > 8.00 | –
4 | COc1ccccc1C(=O)NCc1ccc(-c2nn(C3CN(C)CC3(F)F)c(N)c2C(N)=O)cc1 (stereo not shown) [Example 167, 5-amino-1-(4,4-difluoro-1-methyl-pyrrolidin-3-yl)-3-[4-[[(2-methoxybenzoyl)amino]methyl]phenyl]pyrazole-4-carboxamide] | 7.00 to 8.00 | 5.00 to 6.00 | > 8.00 | > 8.00 | –
5 | COc1ccc(F)cc1C(=O)NCc1cc(F)c(-c2nn(C(C)C(F)(F)F)c(N)c2C(N)=O)cc1F (stereo not shown) [Example 168, 5-amino-3-[2,5-difluoro-4-[[(5-fluoro-2-methoxy-benzoyl)amino]methyl]phenyl]-1-(2,2,2-trifluoro-1-methyl-ethyl)pyrazole-4-carboxamide] | – | 5.00 to 6.00 | 7.00 to 8.00 | > 8.00 | 7.00 to 8.00
6 | COc1ccc(F)cc1C(=O)NCc1ccc(-c2nn(C3CNCC3(F)F)c(N)c2C(N)=O)cc1 (stereo not shown) [Example 169, 5-amino-1-(4,4-difluoropyrrolidin-3-yl)-3-[4-[[(5-fluoro-2-methoxy-benzoyl)amino]methyl]phenyl]pyrazole-4-carboxamide] | 7.00 to 8.00 | 5.00 to 6.00 | > 8.00 | > 8.00 | –
7 | CCC(n1nc(-c2ccc(CNC(=O)c3ccccc3OC)cc2)c(C(N)=O)c1N)C(F)(F)F (stereo not shown) [Example 170, 5-amino-3-[4-[[(2-methoxybenzoyl)amino]methyl]phenyl]-1-[1-(trifluoromethyl)propyl]pyrazole-4-carboxamide] | 6.00 to 7.00 | 5.00 to 6.00 | 7.00 to 8.00 | > 8.00 | –
8 | COc1ccccc1C(=O)NCc1ccc(-c2nn(C(C(C)C)C(F)(F)F)c(N)c2C(N)=O)cc1 (stereo not shown) [Example 171, 5-amino-3-[4-[[(2-methoxybenzoyl)amino]methyl]phenyl]-1-[2-methyl-1-(trifluoromethyl)propyl]pyrazole-4-carboxamide] | 6.00 to 7.00 | 5.00 to 6.00 | 7.00 to 8.00 | > 8.00 | –
9 | COc1ccc(F)cc1C(=O)NCc1ccc(-c2nn(C(C)C(F)F)c(N)c2C(N)=O)cc1 (stereo not shown) [Example 173, 5-amino-1-(2,2-difluoro-1-methyl-ethyl)-3-[4-[[(5-fluoro-2-methoxy-benzoyl)amino]methyl]phenyl]pyrazole-4-carboxamide] | 7.00 to 8.00 | 5.00 to 6.00 | > 8.00 | > 8.00 | –
10 | COc1ccc(F)cc1C(=O)NCc1ccc(-c2nn(CCC(F)(F)F)c(N)c2C(N)=O)cc1 [Example 174, 5-amino-3-[4-[[(5-fluoro-2-methoxy-benzoyl)amino]methyl]phenyl]-1-(3,3,3-trifluoropropyl)pyrazole-4-carboxamide] | 7.00 to 8.00 | 5.00 to 6.00 | > 8.00 | > 8.00 | –

— US11826351B2, “Compounds useful as kinase inhibitors” (Loxo Oncology, Inc., priority 2015, dated 2023)
